Measured values: ChEMBL document CHEMBL1201862, “PubChem BioAssay data set” (2004)
Calls of active or inactive are those of the source. For most assays here, no stated cut-off is given here; in the data, actives have a measured IC50 and inactives only a lower limit.

Tests used:
SUMO-activating enzyme [1] = biological target: T1, SUMO-activating enzyme (Homo sapiens, UniProt Q9UBT2); assay: SUMOylation inhibitor hit validation, confirmation, SUMOylation inhibitor project, biochemical, AlphaScreen (AID 2018); type: functional
T1 sequence (Q9UBE0 whole entry): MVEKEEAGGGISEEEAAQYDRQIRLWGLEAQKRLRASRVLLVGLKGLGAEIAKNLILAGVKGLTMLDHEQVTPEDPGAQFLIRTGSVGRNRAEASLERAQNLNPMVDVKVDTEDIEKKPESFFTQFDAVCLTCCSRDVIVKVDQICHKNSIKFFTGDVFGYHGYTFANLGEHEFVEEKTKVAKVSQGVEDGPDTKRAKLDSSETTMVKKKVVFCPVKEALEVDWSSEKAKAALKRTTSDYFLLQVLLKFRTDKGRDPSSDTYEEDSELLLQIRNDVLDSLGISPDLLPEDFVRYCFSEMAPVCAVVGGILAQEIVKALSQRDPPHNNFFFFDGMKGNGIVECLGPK
T1 sequence (Q9UBT2 whole entry): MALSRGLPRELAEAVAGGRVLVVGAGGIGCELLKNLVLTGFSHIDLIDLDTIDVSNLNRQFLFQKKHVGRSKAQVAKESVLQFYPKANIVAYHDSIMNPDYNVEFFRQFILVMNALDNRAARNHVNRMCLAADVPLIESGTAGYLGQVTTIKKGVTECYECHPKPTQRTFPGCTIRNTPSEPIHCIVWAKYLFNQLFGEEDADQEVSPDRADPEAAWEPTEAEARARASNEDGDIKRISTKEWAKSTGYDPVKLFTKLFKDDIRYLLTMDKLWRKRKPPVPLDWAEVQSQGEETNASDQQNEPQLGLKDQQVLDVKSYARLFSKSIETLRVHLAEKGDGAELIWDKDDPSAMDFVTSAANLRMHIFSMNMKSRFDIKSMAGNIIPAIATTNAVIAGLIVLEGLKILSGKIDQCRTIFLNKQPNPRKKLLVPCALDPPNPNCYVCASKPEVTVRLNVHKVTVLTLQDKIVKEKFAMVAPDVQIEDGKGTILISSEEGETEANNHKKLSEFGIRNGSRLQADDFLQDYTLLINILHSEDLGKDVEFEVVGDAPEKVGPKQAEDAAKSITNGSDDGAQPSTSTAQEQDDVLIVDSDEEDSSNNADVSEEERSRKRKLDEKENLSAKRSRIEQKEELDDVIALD

SUMO-activating enzyme [2] = biological target: T1, SUMO-activating enzyme; assay: inhibitors of in vitro SUMOylation cascade, primary screen, biochemical, HTRF, uHTS (AID 2006); type: protein-complex assay
[3] = biological target: T2, Replicative DNA helicase DnaB (Mycobacterium tuberculosis, UniProt P9WMR3); assay: DnaB intein splicing inhibitors, dose response, biochemical, cell-free fluorescence (AID 449749); type: functional
T2 sequence (P9WMR3 whole entry): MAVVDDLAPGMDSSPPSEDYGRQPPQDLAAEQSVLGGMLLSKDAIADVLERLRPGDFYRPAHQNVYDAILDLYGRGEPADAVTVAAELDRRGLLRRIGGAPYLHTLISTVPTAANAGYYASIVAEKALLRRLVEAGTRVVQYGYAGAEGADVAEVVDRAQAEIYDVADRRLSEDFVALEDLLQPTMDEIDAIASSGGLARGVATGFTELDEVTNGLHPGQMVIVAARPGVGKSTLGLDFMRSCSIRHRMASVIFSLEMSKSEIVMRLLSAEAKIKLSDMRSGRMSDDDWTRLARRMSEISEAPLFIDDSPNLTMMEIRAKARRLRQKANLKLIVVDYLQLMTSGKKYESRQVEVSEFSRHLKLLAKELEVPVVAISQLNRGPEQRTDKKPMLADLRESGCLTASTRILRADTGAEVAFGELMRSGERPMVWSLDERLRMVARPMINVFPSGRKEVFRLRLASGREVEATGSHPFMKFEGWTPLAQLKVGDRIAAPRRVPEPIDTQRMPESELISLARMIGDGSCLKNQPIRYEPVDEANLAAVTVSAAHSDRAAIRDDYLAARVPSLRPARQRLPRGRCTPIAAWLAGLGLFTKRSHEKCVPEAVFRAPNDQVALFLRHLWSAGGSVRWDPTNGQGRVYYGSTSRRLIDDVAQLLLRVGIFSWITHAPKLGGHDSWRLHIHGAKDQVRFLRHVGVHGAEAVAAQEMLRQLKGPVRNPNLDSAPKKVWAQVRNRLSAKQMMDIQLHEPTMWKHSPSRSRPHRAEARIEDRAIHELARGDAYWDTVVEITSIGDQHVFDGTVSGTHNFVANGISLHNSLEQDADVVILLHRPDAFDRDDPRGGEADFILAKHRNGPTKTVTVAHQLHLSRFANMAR

[4] = biological target: T3, Apoptotic protease-activating factor 1 (Homo sapiens, UniProt O14727); type: functional
T3 sequence (O14727 whole entry): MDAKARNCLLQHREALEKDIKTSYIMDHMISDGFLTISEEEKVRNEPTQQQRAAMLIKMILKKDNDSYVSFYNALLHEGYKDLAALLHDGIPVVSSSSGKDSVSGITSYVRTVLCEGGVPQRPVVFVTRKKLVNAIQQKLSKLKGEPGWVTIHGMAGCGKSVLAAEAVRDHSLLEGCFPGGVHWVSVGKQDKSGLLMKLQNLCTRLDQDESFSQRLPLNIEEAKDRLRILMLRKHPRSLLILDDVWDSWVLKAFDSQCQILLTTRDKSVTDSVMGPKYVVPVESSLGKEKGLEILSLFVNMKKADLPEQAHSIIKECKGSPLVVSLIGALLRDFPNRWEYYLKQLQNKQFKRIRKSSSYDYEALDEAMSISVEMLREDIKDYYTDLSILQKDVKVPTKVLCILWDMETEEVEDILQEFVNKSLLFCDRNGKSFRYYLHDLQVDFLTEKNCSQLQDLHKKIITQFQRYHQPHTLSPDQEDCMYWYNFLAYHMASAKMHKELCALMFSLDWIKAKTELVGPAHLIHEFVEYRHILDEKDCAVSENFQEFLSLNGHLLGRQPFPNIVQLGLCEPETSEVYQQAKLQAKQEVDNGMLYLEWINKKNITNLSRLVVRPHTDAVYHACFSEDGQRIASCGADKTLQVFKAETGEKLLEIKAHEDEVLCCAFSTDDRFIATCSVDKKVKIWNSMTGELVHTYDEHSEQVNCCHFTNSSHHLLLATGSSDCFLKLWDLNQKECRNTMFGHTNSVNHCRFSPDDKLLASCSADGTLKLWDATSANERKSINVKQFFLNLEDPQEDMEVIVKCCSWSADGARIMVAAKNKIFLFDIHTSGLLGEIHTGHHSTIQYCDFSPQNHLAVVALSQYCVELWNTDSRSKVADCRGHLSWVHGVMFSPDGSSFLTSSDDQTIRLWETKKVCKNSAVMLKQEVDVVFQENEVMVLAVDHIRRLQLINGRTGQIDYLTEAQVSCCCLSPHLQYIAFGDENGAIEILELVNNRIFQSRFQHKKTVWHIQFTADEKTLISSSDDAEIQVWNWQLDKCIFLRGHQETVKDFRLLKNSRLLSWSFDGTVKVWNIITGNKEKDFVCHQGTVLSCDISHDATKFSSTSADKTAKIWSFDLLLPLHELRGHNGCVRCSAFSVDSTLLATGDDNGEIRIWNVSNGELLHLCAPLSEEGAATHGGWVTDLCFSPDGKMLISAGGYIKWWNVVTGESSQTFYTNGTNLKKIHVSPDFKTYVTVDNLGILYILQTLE

Protein RecA = biological target: T4, Protein RecA (Mycobacterium tuberculosis, UniProt P9WHJ3); assay: Fluorescence Cell-Free Homogeneous Dose Retest to Identify Inhibitors of RecA-Intein Splicing Activity. [Related pubchem assays (depositor defined):AID2097, AID2223, AID489010, AID492950]; type: functional
T4 sequence (P9WHJ3 whole entry): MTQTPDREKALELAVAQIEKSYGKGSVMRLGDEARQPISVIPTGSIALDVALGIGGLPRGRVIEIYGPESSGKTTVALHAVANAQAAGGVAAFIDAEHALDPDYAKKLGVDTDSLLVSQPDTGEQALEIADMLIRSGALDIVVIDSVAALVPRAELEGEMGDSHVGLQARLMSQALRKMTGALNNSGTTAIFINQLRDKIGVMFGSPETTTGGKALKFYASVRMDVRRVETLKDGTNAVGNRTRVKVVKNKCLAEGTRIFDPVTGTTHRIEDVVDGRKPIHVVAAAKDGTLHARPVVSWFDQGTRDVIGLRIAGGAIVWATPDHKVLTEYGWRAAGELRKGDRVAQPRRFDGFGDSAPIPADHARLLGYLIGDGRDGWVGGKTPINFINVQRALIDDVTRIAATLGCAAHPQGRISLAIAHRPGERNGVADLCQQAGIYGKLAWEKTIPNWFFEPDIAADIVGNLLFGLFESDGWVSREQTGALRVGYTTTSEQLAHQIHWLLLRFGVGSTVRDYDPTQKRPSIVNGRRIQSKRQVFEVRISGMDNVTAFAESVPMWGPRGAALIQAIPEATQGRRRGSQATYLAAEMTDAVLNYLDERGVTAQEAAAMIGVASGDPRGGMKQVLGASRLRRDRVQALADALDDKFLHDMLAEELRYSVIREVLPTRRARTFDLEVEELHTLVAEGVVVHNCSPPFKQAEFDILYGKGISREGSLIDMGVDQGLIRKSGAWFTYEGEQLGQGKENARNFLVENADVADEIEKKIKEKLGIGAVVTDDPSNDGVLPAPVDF

| Compound | IC50 (SUMO-activating enzyme [1]) | IC50 (SUMO-activating enzyme [2]) | AC50 [3] | IC50 [4] | EC50 (Protein RecA) |
| --- | --- | --- | --- | --- | --- |
| Nc1c(N2CCCC2)cc(Cl)c2nonc12 | 2.16 µM (active) | 5.6 µM (active) | 8.9 µM (active) | 11 µM (active) | 1.65 µM (active) |
| O=C(NNc1cc(N2CCOCC2)nc(N2CCOCC2)n1)c1ccc([N+](=O)[O-])cc1 | 6.57 µM (active) | 15.8 µM (active) | – | 13.6 µM (active) | – |
| Oc1ccc(/N=C/c2ccc(OCc3ccccc3)cc2)cc1 | – | – | > 380 µM (inactive) | – | > 380 µM (inactive) |
